Experiment [1] deals with Alpha-SMA. Kind of experiment: UUO study: quantitative RT-PCR of kidney, Alpha-SMA. In kind it is in vivo, C57BL/6 mice. To be noted: UUO mice kidney. The protocol:
(§1) Quantitative RT-PCR: Total ribonucleic acid (RNA) was extracted from kidney samples using RNAiso (Takara Bio, Japan) according to the manufacturer's instructions. One μg of RNA was reverse-transcribed using a reaction mixture containing 4.4 micromolar (mM) of magnesium chloride (MgCl2) (F. Hoffmann-La Roche, Switzerland), 40 U RNase inhibitor (Toyobo, Japan), 0.5 mM dNTP (Promega, USA), 6.28 μM random hexamer (Promega), 5× first strand buffer (Promega), 10 mM dithiothreitol (Invitrogen, USA) and 200 U MMLV-RT (Invitrogen) in a final volume of 20 μL. The reaction was carried out for 1 hour at 37° C., followed by 5 minutes at 99° C. Real-time PCR was performed using real-time PCR DICE and TB Green™ Premix Ex Taq™ II (Takara Bio). To calculate the relative microRNA (mRNA) expression level, the expression of each gene (e.g., α-SMA, TIMP-1, TGF-β and Collagen Type 1) was normalized to that of reference gene 36B4 (gene symbol: Rplp0). Information regarding the PCR-primer sets and the plate layout are described in Tables 1 and 2.

Experiment [2] deals with Alpha-SMA. As to the kind of experiment: BDL study: quantitative RT-PCR of liver, Alpha-SMA. In kind it is in vivo, C57BL/6J mice. Particulars: BDL mice liver. As to the method:
as §1, with “from liver” for “from kidney”, “4.4 mM” for “4.4 micromolar (mM) of”, “relative mRNA” for “relative microRNA (mRNA)”, “gene (α-SMA,” for “gene (e.g., α-SMA,”, “Tables 8” for “Tables 1”, “and 9.” for “and 2.”

Experiment [3] relates to TGF-β induced epithelial mesenchymal transition (EMT) protein production. Kind of experiment: TGF-β induced EMT protein production in HepG2 cells. In kind it is cell-based, human. To be noted: increasing doses for 1 hour, then 200 pM TGF-β for 48 hours, listed as 15-HEPE. The protocol: The effects of 15-HEPE on TGF-β-induced signaling and cellular responses were determined. To test the effect of 15-HEPE on TGF-β-induced signaling, the activities of 15-HEPE to regulate TGF-β-stimulated Smad2 phosphorylation and nuclear translocation, both of which are key signaling events leading to TGF-β-induced cellular responses, were tested. One important biological activity of TGF-β is transcriptional activation of genes responsible for epithelial-mesenchymal transition (EMT), which is a crucial event in wound healing, tissue fibrosis, and cancer progression. The effect of 15-HEPE on TGFβ-induced epithelial mesenchymal transition related proteins (such as fibronectin, PAI-1, and N-cadherin etc.) expression in HepG2 and […] cells were assessed. HepG2 cells (human hepatoma cell line) were treated in increasing doses of 15-HEPE stage II in DMEM containing 0.1% of FBS for 1 hour and continually stimulated with or without 200 picomolar (pM) of TGF-β for 48 hours.
HepG2 cells (human hepatoma cell line) were treated in increasing doses of 15-HEPE stage II in DMEM containing 0.1% of FBS for 1 hour and continually stimulated with or without 200 picomolar (pM) of TGF-β for 48 hours. The two panels shown in FIG. 18A are two separate experiments run under the same experimental conditions.

Experiment [4] has as its system NAFLD patients. Kind of experiment: Phase IIa NAFLD study: lipidomics. In kind it is in vivo, human. To be noted: 2 g. The source says: Exploratory analysis: The exploratory analysis included analysis of lipid and metabolic parameters including total cholesterol, triglycerides, very low-density lipoprotein cholesterol (VLDL-C), low density lipoprotein cholesterol (LDL-C), high density lipoprotein cholesterol (HDL-C), non-high-density lipoprotein cholesterol (non-HDL-C), remnant-like particle cholesterol (RLP-C), fasting glucose, insulin, free fatty acids and hemoglobin A1C (HbA1C). Additional exploratory analysis included high throughput lipidomics and proteomics. […] The study was planned to include 96 evaluable patients with 32 patients randomized per treatment group. […] Exploratory analysis: The exploratory analysis included analysis of lipid and metabolic parameters including total cholesterol, triglycerides, very low-density lipoprotein cholesterol (VLDL-C), low density lipoprotein cholesterol (LDL-C), high density lipoprotein cholesterol (HDL-C), non-high-density lipoprotein cholesterol (non-HDL-C), remnant-like particle cholesterol (RLP-C), fasting glucose, insulin, free fatty acids and hemoglobin A1C (HbA1C). Additional exploratory analysis included high throughput lipidomics and proteomics.

In experiment [5] the test system is NAFLD patients. As to the kind of experiment: Phase IIa NAFLD study: OWL Liver Care diagnostic test for NASH. In kind it is in vivo, human. The source says:
The study was planned to include 96 evaluable patients with 32 patients randomized per treatment group.
OWL Liver Care is a test that was developed based on the plasma lipidomics in biopsy-confirmed NASH patients and provides high predictive values. OWL Liver Care has an area under the curve (AUC) of 0.88 for distinguishing NAFLD and normal liver patients and an AUC of 0.79 for distinguishing NAFLD without steatohepatitis and NASH patients.

Setting [6] is: relative mRNA normalized to 36B4, 50 mg/kg PO QD Day 0-13.
[7] abbreviates: relative mRNA normalized to 36B4, 500 mg/kg PO QD Day 0-13.
[8] abbreviates: 1 g per day, baseline diagnosis NASH.
Where [9] appears, read: 1 g per day, baseline diagnosis No NAFLD.
The mark [10] stands for this setting: 1 g per day, baseline diagnosis Steatosis.
[11] abbreviates: 2 g per day, baseline diagnosis NASH.
The mark [12] stands for this setting: 2 g per day, baseline diagnosis No NAFLD.
Setting [13] is: 2 g per day, baseline diagnosis Steatosis.

“Also recorded” adds a separate entry of the source.

Regarding `CC/C=C\CC(O)/C=C/C=C\C/C=C\C/C=C\CCCC(=O)O` (stereo not drawn) [DS102, 15-hydroxy-eicosa-5Z,8Z,11Z,13E,17Z-pentaenoic acid], the Alpha-SMA gene expression with Alpha-SMA [1] (setting [6]) was determined as 3.74 ± 0.81; in the experiment with Alpha-SMA [1] (setting [7]), 5.54 ± 1.54; in the experiment with Alpha-SMA [2] (setting [6]), 3.21 ± 1.67; in the experiment on Alpha-SMA [2] (relative mRNA normalized to 36B4, 250 mg/kg PO QD Day 0-13) it was 2.66 ± 1.33; with Alpha-SMA [2] (setting [7]) it was 1.42 ± 0.75. Besides, the “α-SMA mRNA expression level compared with the Vehicle group” value with Alpha-SMA [2] (500 mg/kg) is on record as “tended to decrease; also recorded: trend approaching significance”. The “α-SMA mRNA expression level vs Vehicle group” value in the experiment on Alpha-SMA [2] (DS102 treatment groups) is “no significant differences”. Moreover, in experiment [3], the “TGF-β induced EMT (pro-fibrotic) protein production” value is reported as “blocks TGF-β induced EMT protein production; also recorded: blocked TGF-β induced pro-fibrotic protein production”. The “levels of multiple glycerophospholipid groups” value in the experiment on NAFLD patients [4] is on record as “significantly increased”. For the same compound, the “levels of multiple hepatotoxic diglycerides” value with NAFLD patients [4] is on record as “significantly decreased”. Further, the “OWL test change in diagnosis (Week 16 vs. baseline): Improvement, patients” value was found to be 5 in the experiment with NAFLD patients [5] (setting [8]), 5 with NAFLD patients [5] (setting [11]) and 1 in the experiment on NAFLD patients [5] (setting [13]). For the same compound, the “OWL test change in diagnosis (Week 16 vs. baseline): Stable, patients” value is given as 14 in the experiment with NAFLD patients [5] (setting [8]); 3 in the experiment with NAFLD patients [5] (setting [9]); 2 with NAFLD patients [5] (setting [10]); 7 in the experiment on NAFLD patients [5] (setting [11]); 2*, ** in the experiment with NAFLD patients [5] (setting [12]); 9 with NAFLD patients [5] (setting [13]). For the same compound, the “OWL test change in diagnosis (Week 16 vs. baseline): Worsening, patients” value came to 1 with NAFLD patients [5] (setting [9]), 3 in the experiment with NAFLD patients [5] (setting [10]), 1 in the experiment with NAFLD patients [5] (setting [12]) and 4 in the experiment on NAFLD patients [5] (setting [13]). Further, in the experiment with NAFLD patients [5] (Week 16, dose dependent, compared to placebo), the “OWL liver care diagnosed NASH” value is “significantly improved and normalized”.

The record behind these values is US20200360331A1, “COMPOSITIONS COMPRISING 15-HEPE AND/OR 15-HETrE AND METHODS OF TREATING OR PREVENTING CARDIOMETABOLIC DISEASE, METABOLIC SYNDROME, AND/OR RELATED DISEASES” (Afimmune Limited, priority 2019, published 2020).
